Data on three compounds can be found in ChEMBL document CHEMBL5365457, “Selective HDAC3 Inhibitors with Potent In Vivo Antitumor Efficacy against Triple-Negative Breast Cancer” (J Med Chem, 2023).

The target of data set [1] is T1, Protein deacetylase HDAC6 (Homo sapiens, UniProt Q9UBN7).
T1 sequence (Q9UBN7 whole entry): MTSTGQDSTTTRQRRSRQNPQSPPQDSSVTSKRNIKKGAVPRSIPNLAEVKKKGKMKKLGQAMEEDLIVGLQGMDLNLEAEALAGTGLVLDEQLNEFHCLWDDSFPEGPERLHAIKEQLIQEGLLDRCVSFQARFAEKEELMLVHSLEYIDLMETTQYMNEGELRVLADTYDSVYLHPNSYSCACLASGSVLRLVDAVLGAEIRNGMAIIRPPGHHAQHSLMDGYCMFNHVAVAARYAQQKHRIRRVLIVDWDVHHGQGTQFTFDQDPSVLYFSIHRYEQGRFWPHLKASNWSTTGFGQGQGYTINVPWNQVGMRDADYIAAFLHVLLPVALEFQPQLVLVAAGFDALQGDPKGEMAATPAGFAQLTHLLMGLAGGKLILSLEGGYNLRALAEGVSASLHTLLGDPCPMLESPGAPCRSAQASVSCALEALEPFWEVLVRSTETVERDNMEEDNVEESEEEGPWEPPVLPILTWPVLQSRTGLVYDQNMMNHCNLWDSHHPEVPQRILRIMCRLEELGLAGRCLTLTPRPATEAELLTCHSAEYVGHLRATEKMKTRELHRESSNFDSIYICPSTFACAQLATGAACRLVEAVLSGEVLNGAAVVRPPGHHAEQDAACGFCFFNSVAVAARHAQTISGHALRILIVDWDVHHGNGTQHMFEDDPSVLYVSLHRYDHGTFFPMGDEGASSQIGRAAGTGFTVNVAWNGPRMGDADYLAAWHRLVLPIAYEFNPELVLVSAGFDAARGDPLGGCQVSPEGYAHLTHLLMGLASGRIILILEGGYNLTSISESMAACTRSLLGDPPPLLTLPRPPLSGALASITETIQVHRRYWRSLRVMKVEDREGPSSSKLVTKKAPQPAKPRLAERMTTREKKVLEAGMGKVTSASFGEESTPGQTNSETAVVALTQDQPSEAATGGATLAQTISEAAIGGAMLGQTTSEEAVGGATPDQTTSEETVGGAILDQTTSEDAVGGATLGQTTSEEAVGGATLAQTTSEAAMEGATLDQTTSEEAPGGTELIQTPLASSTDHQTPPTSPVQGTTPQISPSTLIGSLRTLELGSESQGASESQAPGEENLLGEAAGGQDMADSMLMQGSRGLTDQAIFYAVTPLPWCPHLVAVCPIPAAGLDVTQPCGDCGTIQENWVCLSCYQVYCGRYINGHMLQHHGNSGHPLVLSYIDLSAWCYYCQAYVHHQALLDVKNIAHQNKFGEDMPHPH
Put plainly: Inhibition of human recombinant HDAC6 incubated for 15 mins by fluorescence based microplate analysis.

For data set [2], the target named is T2, Histone deacetylase 8 (Homo sapiens, UniProt Q9BY41).
T2 sequence (Q9BY41 whole entry): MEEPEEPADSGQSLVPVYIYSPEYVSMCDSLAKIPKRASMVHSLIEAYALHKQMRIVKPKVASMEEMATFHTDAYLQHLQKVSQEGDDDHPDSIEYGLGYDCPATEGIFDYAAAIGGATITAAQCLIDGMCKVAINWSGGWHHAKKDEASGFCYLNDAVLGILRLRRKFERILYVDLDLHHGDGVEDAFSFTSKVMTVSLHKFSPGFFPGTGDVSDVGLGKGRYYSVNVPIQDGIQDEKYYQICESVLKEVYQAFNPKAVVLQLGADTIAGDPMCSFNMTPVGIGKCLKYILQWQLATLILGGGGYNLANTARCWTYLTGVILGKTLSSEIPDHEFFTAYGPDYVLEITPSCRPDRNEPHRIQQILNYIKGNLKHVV
Put plainly: Inhibition of human recombinant HDAC8 incubated for 10 mins by fluorescence based microplate analysis.

Data set [3] deals with T1, Protein deacetylase HDAC6. Put plainly: Inhibition of HDAC6 (unknown origin).
For data set [4], the target named is T2, Histone deacetylase 8. The data set is described as follows: Inhibition of HDAC8 (unknown origin).
The nature of data set [5]: Selectivity ratio of IC50 for cytotoxicity against human HEK293 cells assessed as inhibition of cell growth to IC50 for cytotoxicity against human MDA-MB-231 cells assessed as inhibition of cell growth. It counts as toxicity, cell-based. The settings on record: HEK293 cells versus MDA-MB-231 cells, read-out: Ratio IC50.
Data set [6] can be described thus: Selectivity ratio of IC50 for cytotoxicity against human MCF-10A cells assessed as inhibition of cell growth to IC50 for cytotoxicity against human MDA-MB-231 cells assessed as inhibition of cell growth. It counts as toxicity, cell-based. The settings on record: MCF-10A cells versus MDA-MB-231 cells, read-out: Ratio IC50.
Data set [7] concerns the target Histone deacetylase 2 (Homo sapiens, UniProt Q92769). Put plainly: Inhibition of human recombinant HDAC2 at 1 uM incubated for 30 mins by fluorescence based microplate assay relative to control.
A short description of data set [8]: Selectivity ratio of IC50 for cytotoxicity against human HCEC cells assessed as inhibition of cell growth to IC50 for cytotoxicity against human MCF7 cells assessed as inhibition of cell growth. Type of data set: toxicity, cell-based. The settings on record: HCEC cells versus MCF7 cells, read-out: Ratio IC50.
Data set [9] is described as follows: Cytotoxicity against human MCF-10A cells assessed as inhibition of cell growth incubated for 72 hrs by MTT assay. Type of data set: toxicity, cell-based. On the technique in general: Tetrazolium dyes change colour on reduction, which living cells bring about.
A short description of data set [10]: Cytotoxicity against human HEK293 cells assessed as inhibition of cell growth incubated for 72 hrs by MTT assay. It counts as toxicity, cell-based.
The subject of data set [11] is MDA-MB-453. The data set is described as follows: Cytotoxicity against human MDA-MB-453 cells assessed as inhibition of cell growth incubated for 72 hrs by MTT assay. Type of data set: functional, cell-based. The settings on record: MDA-MB-453, 72 h.
For data set [12], the target named is Histone deacetylase 3 (Homo sapiens, UniProt O15379). Put plainly: Inhibition of human recombinant HDAC3 at 1 uM measured after 30 mins by fluorescence based microplate assay relative to control.
Histone deacetylase 3, sequence (O15379 whole entry): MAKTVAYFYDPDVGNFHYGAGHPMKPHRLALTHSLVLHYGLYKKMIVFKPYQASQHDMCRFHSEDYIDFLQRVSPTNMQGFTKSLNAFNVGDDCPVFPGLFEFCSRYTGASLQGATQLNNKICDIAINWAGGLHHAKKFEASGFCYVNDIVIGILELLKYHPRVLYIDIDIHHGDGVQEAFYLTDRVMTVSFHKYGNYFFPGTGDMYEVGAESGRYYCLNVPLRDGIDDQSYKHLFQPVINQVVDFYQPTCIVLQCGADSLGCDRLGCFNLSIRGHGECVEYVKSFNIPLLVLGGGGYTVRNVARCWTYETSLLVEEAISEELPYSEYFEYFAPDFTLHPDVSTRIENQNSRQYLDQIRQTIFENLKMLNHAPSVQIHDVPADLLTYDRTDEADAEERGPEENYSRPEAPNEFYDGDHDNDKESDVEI
A short description of data set [13]: Selectivity ratio of IC50 for cytotoxicity against human HEK293 cells assessed as inhibition of cell growth to IC50 for cytotoxicity against human MDA-MB-453 cells assessed as inhibition of cell growth. The settings on record: HEK293 cells versus MDA-MB-453 cells, read-out: Ratio IC50. Type of data set: toxicity, cell-based.
Data set [14] relates to MCF7. Put plainly: Cytotoxicity against human MCF7 cells assessed as inhibition of cell growth incubated for 72 hrs by MTT assay. Type of data set: functional, cell-based. The settings on record: MCF7, 72 h.
Data set [15] in a line: Selectivity ratio of IC50 for cytotoxicity against human MCF-10A cells assessed as inhibition of cell growth to IC50 for cytotoxicity against human MCF7 cells assessed as inhibition of cell growth. Type of data set: toxicity, cell-based. The settings on record: MCF-10A cells versus MCF7 cells, read-out: Ratio IC50.
Data set [16] has as its system MDA-MB-231. The data set is described as follows: Cytotoxicity against human MDA-MB-231 cells assessed as inhibition of cell growth incubated for 72 hrs by MTT assay. The settings on record: MDA-MB-231, 72 h. Type of data set: functional, cell-based.
A short description of data set [17]: Selectivity ratio of IC50 for cytotoxicity against human HCEC cells assessed as inhibition of cell growth to IC50 for cytotoxicity against human MDA-MB-231 cells assessed as inhibition of cell growth. Type of data set: toxicity, cell-based. The settings on record: HCEC cells versus MDA-MB-231 cells, read-out: Ratio IC50.
A short description of data set [18]: Selectivity ratio of IC50 for cytotoxicity against human HEK293 cells assessed as inhibition of cell growth to IC50 for cytotoxicity against human MCF7 cells assessed as inhibition of cell growth. It counts as toxicity, cell-based. The settings on record: HEK293 cells versus MCF7 cells, read-out: Ratio IC50.
Data set [19] deals with 4T1. Put plainly: Cytotoxicity against mouse 4T1 cells assessed as inhibition of cell growth incubated for 72 hrs by MTT assay. Type of data set: functional, cell-based. The settings on record: 4T1, 72 h.
Data set [20] can be described thus: Selectivity ratio of IC50 for cytotoxicity against human HCEC cells assessed as inhibition of cell growth to IC50 for cytotoxicity against human MDA-MB-453 cells assessed as inhibition of cell growth. The settings on record: HCEC cells versus MDA-MB-453 cells, read-out: Ratio IC50. Type of data set: toxicity, cell-based.
Data set [21] is described as follows: Selectivity ratio of IC50 for cytotoxicity against human MCF-10A cells assessed as inhibition of cell growth to IC50 for cytotoxicity against […] cells assessed as inhibition of cell growth. It counts as toxicity, cell-based. The settings on record: MCF-10A cells versus 4T1 cells, read-out: Ratio IC50.
A short description of data set [22]: Selectivity ratio of IC50 for cytotoxicity against human MCF-10A cells assessed as inhibition of cell growth to IC50 for cytotoxicity against human MDA-MB-453 cells assessed as inhibition of cell growth. It counts as toxicity, cell-based. The settings on record: MCF-10A cells versus MDA-MB-453 cells, read-out: Ratio IC50.
A short description of data set [23]: Cytotoxicity against human HCEC cells assessed as inhibition of cell growth incubated for 72 hrs by MTT assay. Type of data set: toxicity, cell-based. The settings on record: human, HCEC cells.
Data set [24] is described as follows: Selectivity ratio of IC50 for cytotoxicity against human HEK293 cells assessed as inhibition of cell growth to IC50 for cytotoxicity against mouse 4T1 cells assessed as inhibition of cell growth. The settings on record: HEK293 cells versus 4T1 cells, read-out: Ratio IC50. Type of data set: toxicity, cell-based.
Data set [25] can be described thus: Selectivity ratio of IC50 for cytotoxicity against human HCEC cells assessed as inhibition of cell growth to IC50 for cytotoxicity against mouse 4T1 cells assessed as inhibition of cell growth. Type of data set: toxicity, cell-based. The settings on record: HCEC cells versus 4T1 cells, read-out: Ratio IC50.
The target of data set [26] is Histone deacetylase 1 (Homo sapiens, UniProt Q13547). Put plainly: Inhibition of full length N-terminal human recombinant HDAC1 at 1 uM incubated for 30 mins by fluorescence based microplate assay relative to control.
Histone deacetylase 1, sequence (Q13547 whole entry): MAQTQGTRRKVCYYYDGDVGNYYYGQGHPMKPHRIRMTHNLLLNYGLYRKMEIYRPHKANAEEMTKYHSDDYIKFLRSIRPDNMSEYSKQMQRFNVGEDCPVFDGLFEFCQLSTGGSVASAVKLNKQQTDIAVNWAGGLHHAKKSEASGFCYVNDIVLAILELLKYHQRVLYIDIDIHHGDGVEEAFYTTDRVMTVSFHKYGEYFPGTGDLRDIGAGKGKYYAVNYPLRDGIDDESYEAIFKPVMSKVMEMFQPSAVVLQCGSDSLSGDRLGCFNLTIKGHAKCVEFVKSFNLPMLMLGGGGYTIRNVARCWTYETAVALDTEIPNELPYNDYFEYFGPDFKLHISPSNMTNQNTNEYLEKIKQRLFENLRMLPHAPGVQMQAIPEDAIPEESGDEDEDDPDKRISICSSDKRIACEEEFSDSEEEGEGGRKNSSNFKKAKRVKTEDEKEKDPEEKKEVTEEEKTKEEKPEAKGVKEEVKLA

Histone deacetylase 2, sequence (Q92769 whole entry): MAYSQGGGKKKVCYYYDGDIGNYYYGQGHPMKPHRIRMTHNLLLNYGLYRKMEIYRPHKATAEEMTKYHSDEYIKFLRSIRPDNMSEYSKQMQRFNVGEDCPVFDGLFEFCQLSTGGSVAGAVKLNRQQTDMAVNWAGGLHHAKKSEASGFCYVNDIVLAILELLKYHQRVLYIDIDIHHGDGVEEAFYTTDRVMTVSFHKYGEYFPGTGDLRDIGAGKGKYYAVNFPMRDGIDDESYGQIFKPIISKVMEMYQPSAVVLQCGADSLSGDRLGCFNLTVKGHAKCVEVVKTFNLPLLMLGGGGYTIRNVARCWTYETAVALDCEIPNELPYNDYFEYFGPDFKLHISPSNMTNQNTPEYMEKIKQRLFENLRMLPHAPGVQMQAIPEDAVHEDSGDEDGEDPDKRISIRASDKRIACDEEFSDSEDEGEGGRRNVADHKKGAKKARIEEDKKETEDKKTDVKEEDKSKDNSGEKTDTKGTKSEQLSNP

`Nc1ccccc1NC(=O)c1cnc(NCc2ccccc2)cn1`: the IC50 – broadly, the concentration that inhibits the measured activity by half – came to 37.2 µM in data set [1] and 15.6 µM in data set [2].

`Nc1ccccc1NC(=O)c1cnccn1`: the 50% inhibitory concentration (IC50) came to 34.2 µM in [3] and 28.5 µM in data set [4].

On to `CCCNNC(=O)c1cnc(NC(=O)c2ccc3ncccc3c2)cn1`, for which the selectivity ratio in data set [5], in [6], in data set [8], in [13], in [15] and in [17] was over 40 each time. Also, the selectivity ratio in data set [18], in data set [20], in [21], in data set [22], in data set [24] and in [25] was over 40 each time. The inhibition – broadly, how much of the control response was suppressed – in data set [7] was under 17%; in [12] it was over 70%; in data set [26], under 17%. The IC50 at 72 h in [9] amounted to 140 µM; in data set [10] it was 126 µM; in [23] it was 131 µM. Moreover, the half-inhibitory concentration (IC50) in data set [11] is 1.82 µM; in [14], 1.01 µM; in data set [16] it was 0.87 µM; in data set [19], 0.59 µM.
